Experimental data taken from the NIST ThermoML archive (doi:10.1021/je700281z).

Experiments:
[1] = 101.33 kPa, Liquid; for speed of sound: sound analyzer
[2] = xn = mol fraction of the nth substance listed; details: 101 kPa, Liquid

COCCOCCO [2-(2-methoxyethoxy)ethanol]
[1]
Details | mass density [kg/m3] | speed of sound [m/s]
293.15 K | 1019.81 | 1432.4
298.15 K | 1015.41 | 1415.2
303.15 K | 1010.91 | 1397.9

COCCOCCO [2-(2-methoxyethoxy)ethanol] + CCCCO
[2]
Details | mass density [kg/m3]
293.15 K, x1 = 0.0535 | 823.612
293.15 K, x1 = 0.1527 | 848.542
293.15 K, x1 = 0.2 | 860.004
293.15 K, x1 = 0.2003 | 860.091
293.15 K, x1 = 0.2518 | 872.235
293.15 K, x1 = 0.3009 | 883.531
293.15 K, x1 = 0.3032 | 884.084
293.15 K, x1 = 0.3546 | 895.622
293.15 K, x1 = 0.399 | 905.367
293.15 K, x1 = 0.4007 | 905.744
293.15 K, x1 = 0.4522 | 916.775
293.15 K, x1 = 0.5012 | 927.038
293.15 K, x1 = 0.5527 | 937.589
293.15 K, x1 = 0.5978 | 946.625
293.15 K, x1 = 0.6019 | 947.427
293.15 K, x1 = 0.6526 | 957.368
293.15 K, x1 = 0.6961 | 965.704
293.15 K, x1 = 0.7503 | 975.858
293.15 K, x1 = 0.7973 | 984.5
293.15 K, x1 = 0.8492 | 993.819
293.15 K, x1 = 0.8978 | 1002.37
293.15 K, x1 = 0.947 | 1010.88
298.15 K, x1 = 0.053 | 819.639
298.15 K, x1 = 0.1019 | 832.026
298.15 K, x1 = 0.1502 | 843.949
298.15 K, x1 = 0.2028 | 856.65
298.15 K, x1 = 0.2523 | 868.3
298.15 K, x1 = 0.3497 | 890.395
298.15 K, x1 = 0.454 | 912.946
298.15 K, x1 = 0.5507 | 932.958
298.15 K, x1 = 0.6013 | 943.061
298.15 K, x1 = 0.648 | 952.194
298.15 K, x1 = 0.6994 | 962.043
298.15 K, x1 = 0.7465 | 970.86
298.15 K, x1 = 0.7505 | 971.594
298.15 K, x1 = 0.7968 | 980.073
298.15 K, x1 = 0.7977 | 980.251
298.15 K, x1 = 0.8465 | 988.996
298.15 K, x1 = 0.8486 | 989.382
298.15 K, x1 = 0.8987 | 998.178
298.15 K, x1 = 0.899 | 998.234
298.15 K, x1 = 0.9481 | 1006.69
298.15 K, x1 = 0.9483 | 1006.72
303.15 K, x1 = 0.0508 | 815.157
303.15 K, x1 = 0.1014 | 827.941
303.15 K, x1 = 0.1471 | 839.22
303.15 K, x1 = 0.2015 | 852.303
303.15 K, x1 = 0.2528 | 864.365
303.15 K, x1 = 0.3048 | 876.239
303.15 K, x1 = 0.3503 | 886.405
303.15 K, x1 = 0.3555 | 887.558
303.15 K, x1 = 0.4005 | 897.361
303.15 K, x1 = 0.4503 | 908.007
303.15 K, x1 = 0.4981 | 917.96
303.15 K, x1 = 0.5518 | 928.933
303.15 K, x1 = 0.5996 | 938.439
303.15 K, x1 = 0.648 | 947.877
303.15 K, x1 = 0.6991 | 957.619
303.15 K, x1 = 0.7497 | 967.071
303.15 K, x1 = 0.7954 | 975.414
303.15 K, x1 = 0.8491 | 985.035
303.15 K, x1 = 0.8964 | 993.318
303.15 K, x1 = 0.9513 | 1002.75

CCCCOCCOCCO [3,6-dioxa-1-decanol]
[1]
Details | mass density [kg/m3] | speed of sound [m/s]
293.15 K | 952.196 | 1374.3
298.15 K | 948.103 | 1357
303.15 K | 943.743 | 1340
